Source: patent US5468767A, “Antidepressant 3-(aminocycloalkenyl)-indole-5-nitrile derivatives” (Bristol-Myers Squibb Company, priority 1994, dated 1995)

What follows are compounds tested on synaptosomal re-uptake of tritiated serotonin (assay: In vitro inhibition of synaptosomal re-uptake of tritiated serotonin (5-HT uptake inhibition)).
Assay type: biochemical
Protocol: Determination of endogenous monoaminergic re-uptake inhibition values both for serotonin and norepinephrine was accomplished using test methods described by P. Skolnick, et al., Br. J. Pharmacology, (1985), 86, pp. 637-644; with only minor modifications. In vitro IC50 (nM) test values were determined for representative compounds of Formula I based on their inhibition of synaptosomal re-uptake of tritiated serotonin. Test data IC50 values lower than 500 nM are considered to reflect activity as an inhibitor of serotonin re-uptake.
In vitro IC50 (nM) test values below 100 nM are designated with ** and those below 10 nM with ***.
With `N#Cc1ccc2[nH]cc(C3=CCC(NCCc4cccc(F)c4)CC3)c2c1` (stereo not drawn) [Example 30] the IC50 was < 10 nM.
For `N#Cc1ccc2[nH]cc(C3=CCC(NCC4COc5ccccc5O4)CC3)c2c1` (stereo not drawn) [Example 39], the IC50 was < 10 nM.
In the case of `N#Cc1ccc2[nH]cc(C3=CCC(NCCc4ccc(F)cc4)CC3)c2c1` (stereo not drawn) [Example 33], the IC50 is reported as < 10 nM.
In the case of `N#Cc1ccc2[nH]cc(C3=CCC(NCCc4cccnc4)CC3)c2c1` (stereo not drawn) [Example 37], the IC50 is reported as < 10 nM.
In the case of `CN(C)C1CC=C(c2c[nH]c3ccc(C#N)cc23)CC1` (stereo not drawn) [Example 23], the IC50 is reported as < 10 nM.
With `CCNC1CC=C(c2c[nH]c3ccc(C#N)cc23)CC1` (stereo not drawn) [Example 41] the IC50 was < 100 nM.
In the case of `N#Cc1ccc2[nH]cc(C3=CCC(NCCc4ccccc4F)CC3)c2c1` (stereo not drawn) [Example 32], the IC50 is reported as < 10 nM.
In the case of `CN(CCc1ccccc1)C1CC=C(c2c[nH]c3ccc(C#N)cc23)CC1` (stereo not drawn) [Example 29], the IC50 is reported as < 10 nM.
In the case of `N#CCc1ccc2[nH]cc(C3=CCC(NCCc4ccccc4)CC3)c2c1` (stereo not drawn) [Example 31, 3-[[4-(2-Phenylethyl)amino]-1-cyclohexen-1-yl]-1H-indole-5-acetonitrile], the IC50 is reported as < 100 nM.
With `CC(C)NC1CC=C(c2c[nH]c3ccc(C#N)cc23)CC1` (stereo not drawn) [Example 26] the IC50 was < 100 nM.
With `COc1ccccc1CCNC1CC=C(c2c[nH]c3ccc(C#N)cc23)CC1` (stereo not drawn) [Example 34] the IC50 was < 10 nM.
With `N#Cc1ccc2[nH]cc(C3=CCC(NCCCc4ccccc4)CC3)c2c1` (stereo not drawn) [Example 38] the IC50 was < 10 nM.
With `N#Cc1ccc2[nH]cc(C3=CCC(NCCCCc4ccccc4)CC3)c2c1` (stereo not drawn) [Example 40] the IC50 was < 10 nM.
`N#Cc1ccc2[nH]cc(C3=CCC(NCCc4ccccc4)CC3)c2c1` (stereo not drawn) [Example 28] was tested, and the IC50 was < 10 nM.
For `N#Cc1ccc2[nH]cc(C3=CCC(NCc4ccccc4)CC3)c2c1` (stereo not drawn) [Example 27], the IC50 was < 10 nM.
`COc1cccc(CCNC2CC=C(c3c[nH]c4ccc(C#N)cc34)CC2)c1` (stereo not drawn) [Example 35] was tested, and the IC50 was < 10 nM.
With `COc1ccc(CCNC2CC=C(c3c[nH]c4ccc(C#N)cc34)CC2)cc1` (stereo not drawn) [Example 36] the IC50 was < 10 nM.
In the case of `CCN(CC)C1CC=C(c2c[nH]c3ccc(C#N)cc23)CC1` (stereo not drawn) [Example 24], the IC50 is reported as < 100 nM.
